The target of one test is T1, hEP2/Gqs5 (Homo sapiens, UniProt P43116).
T1 construct: expressed in transfected cells; host or cells: HEK-293(EBNA)
The test is described as follows: EP2 FLIPR calcium signal study. Format: cell-based. The note with it: HEK-293(EBNA) cells expressing hEP2/Gqs5; unit inferred. Here is the method: (§1) Methods for FLIPR™ Studies
(§2) HEK-293(EBNA) cells, stably expressing one type or subtype of recombinant human prostaglandin receptors (prostaglandin receptors expressed: hDP/Gqs5; hEP1; hEP2/Gqs5; hEP3A/Gqi5; hEP4/Gqs5; hFP; hIP; hTP), were cultured in 100 mm culture dishes in high-glucose DMEM medium containing 10% fetal bovine serum, 2 mM 1-glutamine, 250 μg/ml geneticin (G418) and 200 μg/ml hygromycin B as selection markers, and 100 units/ml penicillin G, 100 μg/ml streptomycin and 0.25 μg/ml amphotericin B.
(§3) (b) Calcium Signal Studies on The FLIPR™
(§4) Cells were seeded at a density of 5×10^4 cells per well in Biocoat® Poly-D-lysine-coated black-wall, clear-bottom 96-well plates (Becton-Dickinson) and allowed to attach overnight in an incubator at 37° C. Cells were then washed two times with HBSS-HEPES buffer (Hanks Balanced Salt Solution without bicarbonate and phenol red, 20 mM HEPES, pH 7.4) using a Denley Cellwash plate washer (Labsystems). After 45 minutes of dye-loading in the dark, using the calcium-sensitive dye Fluo-4 […] at a final concentration of 2 μM, plates were washed four times with HBSS-HEPES buffer to remove excess dye leaving 100 μl in each well. Plates were re-equilibrated to 37° C. for a few minutes.
(§5) Cells were excited with an Argon laser at 488 nm, and emission was measured through a 510-570 nm bandwidth emission filter (FLIPR™, Molecular Devices, Sunnyvale, Calif.). Drug solution was added in a 50 μl volume to each well to give the desired final concentration. The peak increase in fluorescence intensity was recorded for each well. On each plate, four wells each served as negative (HBSS-HEPES buffer) and positive controls (standard agonists: BW245C (hDP); PGE2 (hEP1; hEP2/Gqs5; hEP3A/Gqi5; hEP4/Gqs5); PGF2α (hFP); carbacyclin (hIP); U-46619 (hTP), depending on receptor). The peak fluorescence change in each drug-containing well was then expressed relative to the controls.
(§6) Compounds were tested in a high-throughput (HTS) or concentration-response (CoRe) format. In the HTS format, forty-four compounds per plate were examined in duplicates at a concentration of 10^−5 M. To generate concentration-response curves, four compounds per plate were tested in duplicates in a concentration range between 10^−5 and 10^−11 M. The duplicate values were averaged. In either, HTS or CoRe format each compound was tested on at least 3 separate plates using cells from different passages to give an n>3.

Test [1] has as its target T2, EP2 (Homo sapiens, UniProt P43116). The test is described as follows: EP2 cAMP assay. It is filed as cell-based. Particulars: unit inferred.
The target of another test is T3, EP4 receptors (Homo sapiens, UniProt P35408).
T3 construct: expressed in transfected cells; host or cells: HEK-293
Kind of test: EP4 radioligand binding (Ki) vs [3H]PGE2. Particulars: unit inferred. Here is the method:
(§7) Cells Stably Expressing EP1, EP2, EP4 and FP Receptors
(§8) HEK-293 cells stably expressing the human or feline FP receptor, or EP1, EP2, or EP4 receptors were washed with TME buffer, scraped from the bottom of the flasks, and homogenized for 30 sec using a Brinkman PT 10/35 polytron. TME buffer was added to achieve a final 40 ml volume in the centrifuge tubes (the composition of TME is 100 mM TRIS base, 20 mM MgCl2, […]; 10N HCl is added to achieve a pH of 7.4).
(§9) The cell homogenate was centrifuged at 19000 r.p.m. for 20 min at 4° C. using a Beckman Ti-60 rotor. The resultant pellet was resuspended in TME buffer to give a final 1 mg/ml protein concentration, as determined by Biorad assay. Radioligand binding competition assays vs. [^3H-]17-phenyl PGF2α (5 nM) were performed in a […] volume for 60 min. Binding reactions were started by adding plasma membrane fraction. The reaction was terminated by the addition of 4 ml ice-cold TRIS-HCl buffer and rapid filtration through glass fiber GF/B filters using a Brandel cell harvester. The filters were washed 3 times with ice-cold buffer and oven dried for one hour.
(§10) [^3H-] PGE2 (specific activity 180 Ci mmol) was used as the radioligand for EP receptors. [^3H] 17-phenyl PGF2, was employed for FP receptor binding studies. Binding studies employing EP1, EP2, EP4 and FP receptors were performed in duplicate in at least three separate experiments. A 200 μl assay volume was used. Incubations were for 60 min at 25° C. and were terminated by the addition of 4 ml of ice-cold 50 mM TRIS-HCl, followed by rapid filtration through Whatman GF/B filters and three additional 4 ml washes in a cell harvester (Brandel). Competition studies were performed using a final concentration of 5 nM [^3H]-PGE2, or 5 nM [^3H] 17-phenyl PGF2, and non-specific binding determined with 10^−5M of unlabeled PGE2, or 17-phenyl PGF2α, according to receptor subtype studied.

Test [2] concerns the target T2, EP2. The test is described as follows: EP2 competition binding (Ki) vs [3H]PGE2. Also on record: expressed in transfected cells; host or cells: HEK 293. Particulars: HEK 293 cells stably expressing human EP2, [3H]PGE2; unit inferred. On the procedure: Competition binding experiments were performed in a medium containing Hank's balanced salt solution, Hepes 20 mM, pH 7.3, membranes (˜60 μg protein) or 2×10^5 cells from HEK 293 cells stably expressing human EP2 receptors, [^3H]PGE2 (10 nM) and various concentrations of test compounds in a total volume of 300 μl. Reaction mixtures were incubated at 23° C. for 60 min, and were filtered over Whatman GF/B filters under vacuum. Filters were washed three times with 5 ml ice-cold buffer containing 50 mM Tris/HCl (pH 7.3). Non-specific binding was estimated in the presence of excess unlabeled PGE2 (10 μM). Binding data fitted to the binding model for a single class of binding sites, using nonlinear regression analysis. IC50 values thus obtained were converted to Ki using the equation of Ki=(IC50/(1+[L]/KD) where [L] represents PGE2 concentration (10 nM) and KD the dissociation constant for [^3H]PGE2 at human EP2 receptors (40 nM).
as §7, §8, §9, §10

The target of a further test is T4, hDP/Gqs5 (Homo sapiens, UniProt Q13258).
T4 construct: expressed in transfected cells; host or cells: HEK-293(EBNA)
T4 sequence (Q13258 1-359): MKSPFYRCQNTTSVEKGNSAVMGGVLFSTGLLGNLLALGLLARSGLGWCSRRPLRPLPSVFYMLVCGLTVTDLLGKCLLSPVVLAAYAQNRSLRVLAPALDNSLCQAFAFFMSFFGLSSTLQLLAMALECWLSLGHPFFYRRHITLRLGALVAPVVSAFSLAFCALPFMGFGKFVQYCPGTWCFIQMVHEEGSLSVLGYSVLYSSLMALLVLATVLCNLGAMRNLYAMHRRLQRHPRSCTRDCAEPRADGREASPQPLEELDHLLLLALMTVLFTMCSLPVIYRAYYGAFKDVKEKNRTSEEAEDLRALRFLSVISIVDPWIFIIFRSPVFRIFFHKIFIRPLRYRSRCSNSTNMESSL
Kind of test: hDP FLIPR calcium signal study. The note with it: HEK-293(EBNA) cells expressing hDP/Gqs5; read-out: Other Receptors (EC50 in nM) hDP. It is filed as cell-based. On the procedure: as §1, §2, §3, §4, §5, §6

The next test addresses T5, hEP4/Gqs5 (Homo sapiens, UniProt P35408).
T5 construct: expressed in transfected cells; host or cells: HEK-293(EBNA)
Kind of test: EP4 FLIPR calcium signal study. Format: cell-based. The note with it: HEK-293(EBNA) cells expressing hEP4/Gqs5; unit inferred. Here is the method: as §1, §2, §3
(§11) Cells were seeded at a density of 5×10^4 cells per well in Biocoat® Poly-D-lysine-coated black-wall, clear-bottom 96-well plates (Becton-Dickinson) and allowed to attach overnight in an incubator at 37° C. Cells were then washed two times with HBSS-HEPES buffer (Hanks Balanced Salt Solution without bicarbonate and phenol red, 20 mM HEPES, pH 7.4) using a Denley Cellwash plate washer (Labsystems). […]
(§12) Cells were excited with an Argon laser at 488 nm, and emission was measured through a 510-570 nm bandwidth emission filter (FLIPR™, Molecular Devices, Sunnyvale, Calif.). […] The peak increase in fluorescence intensity was recorded for each well. […] The peak fluorescence change in each drug-containing well was then expressed relative to the controls. […]

In another test the target is T6, hEP3A/Gqi5 (Homo sapiens, UniProt P43115).
T6 construct: expressed in transfected cells; host or cells: HEK-293(EBNA)
T6 sequence (P43115 1-390): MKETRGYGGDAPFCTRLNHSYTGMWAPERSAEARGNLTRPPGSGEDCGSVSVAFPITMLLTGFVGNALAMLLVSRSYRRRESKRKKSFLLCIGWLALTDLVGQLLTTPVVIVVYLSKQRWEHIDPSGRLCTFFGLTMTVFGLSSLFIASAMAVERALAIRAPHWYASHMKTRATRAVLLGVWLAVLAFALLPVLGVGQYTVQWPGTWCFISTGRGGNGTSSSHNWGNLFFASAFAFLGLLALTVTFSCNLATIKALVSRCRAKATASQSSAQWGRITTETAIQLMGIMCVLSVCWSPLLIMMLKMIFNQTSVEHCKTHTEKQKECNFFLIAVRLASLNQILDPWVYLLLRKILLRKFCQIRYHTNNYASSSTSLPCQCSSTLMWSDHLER
The test is described as follows: hEP3A FLIPR calcium signal study. Format: cell-based. Particulars: HEK-293(EBNA) cells expressing hEP3A/Gqi5; read-out: Other Receptors (EC50 in nM) hEP3A. Here is the method: as §1, §2, §3, §11, §12

SMILES strings stand for the structures.

T2 sequence (P43116 whole entry): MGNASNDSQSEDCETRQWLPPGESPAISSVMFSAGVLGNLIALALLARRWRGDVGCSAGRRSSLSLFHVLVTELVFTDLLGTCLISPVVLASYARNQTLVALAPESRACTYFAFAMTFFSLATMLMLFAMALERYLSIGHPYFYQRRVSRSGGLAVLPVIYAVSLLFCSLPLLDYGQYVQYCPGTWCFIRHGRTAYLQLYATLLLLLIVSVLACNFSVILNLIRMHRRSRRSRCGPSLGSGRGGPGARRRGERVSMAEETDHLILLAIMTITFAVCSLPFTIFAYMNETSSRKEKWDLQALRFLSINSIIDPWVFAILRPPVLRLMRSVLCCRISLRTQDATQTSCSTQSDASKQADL
T1 sequence (P43116 whole entry): as above
T3 sequence (P35408 whole entry): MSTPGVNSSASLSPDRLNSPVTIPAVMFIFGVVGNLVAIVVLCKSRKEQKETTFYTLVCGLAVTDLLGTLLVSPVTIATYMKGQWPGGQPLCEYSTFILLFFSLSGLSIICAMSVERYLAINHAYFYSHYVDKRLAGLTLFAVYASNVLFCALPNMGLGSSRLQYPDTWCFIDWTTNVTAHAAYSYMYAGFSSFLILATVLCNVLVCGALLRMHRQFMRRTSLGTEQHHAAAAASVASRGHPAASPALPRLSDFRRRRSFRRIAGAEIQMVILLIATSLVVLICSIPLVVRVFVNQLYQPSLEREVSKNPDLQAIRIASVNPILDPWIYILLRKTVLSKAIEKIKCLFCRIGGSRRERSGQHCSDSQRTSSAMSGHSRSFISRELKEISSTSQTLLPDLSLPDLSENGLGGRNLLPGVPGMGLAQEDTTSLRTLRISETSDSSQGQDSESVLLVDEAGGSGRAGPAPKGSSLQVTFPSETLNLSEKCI
T5 sequence (P35408 whole entry): as above

In the case of `CCCCCC(O)c1ccc(N2C(=O)CC[C@@H]2COCc2cccc(C(=O)O)c2)cc1` (mixture of isomers) [Example 11, 3-{(R)-1-[4-(1-Hydroxy-hexyl)-phenyl]-5-oxo-pyrrolidin-2-ylmethoxymethyl}-benzoic acid], the EC50 at hEP2/Gqs5 is more than 10000 nM; at EP2 [1], 517 nM. The Ki on EP4 receptors is more than 10000 nM.

As to `CCCCC(O)c1ccc(N2C(=O)CC[C@@H]2COCc2ccc(C(=O)O)s2)cc1` (mixture of isomers) [Example 12, 5-{(R)-1-[4-(1-Hydroxy-pentyl)-phenyl]-5-oxo-pyrrolidin-2-ylmethoxymethyl}-thiophene-2-carboxylic acid], the EC50 at hEP2/Gqs5 was found to be 212 nM; at EP2 [1] it was 8 nM. Moreover, the Ki is more than 10000 nM at EP4 receptors and 387 nM on EP2 [2].

On to `CCCCCCC(O)c1ccc(N2C(=O)CC[C@@H]2COCc2ccc(C(=O)O)s2)cc1` (mixture of isomers) [Example 13, 5-{(R)-1-[4-(1-Hydroxy-heptyl)-phenyl]-5-oxo-pyrrolidin-2-ylmethoxymethyl}-thiophene-2-carboxylic acid], for which the EC50 was 20 nM on hEP2/Gqs5, 1.5 nM at EP2 [1] and 5760 nM at hDP/Gqs5. Also, the values for the Ki at EP4 receptors and on EP2 [2] were more than 10000 nM and 190 nM, respectively.

Consider `CCCC(O)c1ccc(N2C(=O)CC[C@@H]2COCc2ccc(C(=O)O)s2)cc1` (mixture of isomers) [Example 14, 5-{(R)-1-[4-(1-Hydroxy-butyl)-phenyl]-5-oxo-pyrrolidin-2-ylmethoxymethyl}-thiophene-2-carboxylic acid], for which the figures for the EC50 at hEP2/Gqs5 and on EP2 [1] were 426 nM and 27 nM, respectively. The values for the Ki at EP4 receptors and at EP2 [2] were more than 10000 nM and 1640 nM, respectively.

As to `CCC(O)c1ccc(N2C(=O)CC[C@@H]2COCc2ccc(C(=O)O)s2)cc1` (mixture of isomers) [Example 15, 5-{(R)-1-[4-(1-Hydroxy-propyl)-phenyl]-5-oxo-pyrrolidin-2-ylmethoxymethyl}-thiophene-2-carboxylic acid], the EC50 at hEP2/Gqs5 was 1810 nM; at EP2 [1], 312 nM; at hEP4/Gqs5, more than 10000 nM; on hDP/Gqs5, 7560 nM. Also, the Ki was more than 10000 nM on EP4 receptors and 5730 nM on EP2 [2].

Take `CCCCCC(O)c1ccc(N2C(=O)CC[C@@H]2CCCc2ccc(C(=O)O)s2)cc1` (mixture of isomers) [Example 17, 5-(3-{(S)-1-[4-(1-Hydroxy-hexyl)-phenyl]-5-oxo-pyrrolidin-2-yl}-propyl)-thiophene-2-carboxylic acid]: the EC50 came to 5 nM at hEP2/Gqs5, 0.55 nM at EP2 [1], 155 nM on hEP3A/Gqi5 and 1230 nM on hDP/Gqs5. Besides, the Ki on EP4 receptors was more than 10000 nM; at EP2 [2] it was 23 nM.

On to `CCCCCCC(O)c1ccc(N2C(=O)CC[C@@H]2CCCc2ccc(C(=O)O)s2)cc1` (mixture of isomers) [Example 36, 5-(3-{(S)-1-[4-(1-Hydroxy-heptyl)-phenyl]-5-oxo-pyrrolidin-2-yl}-propyl)-thiophene-2-carboxylic acid], for which the EC50 was 30 nM on hEP2/Gqs5, more than 10000 nM at hEP4/Gqs5, 47 nM at hEP3A/Gqi5 and 105 nM at hDP/Gqs5.

Take `CCCCCC(O)c1ccc(N2C(=O)CC[C@@H]2COc2ccc(C(=O)O)cc2)cc1` (mixture of isomers) [Example 43, 4-{(R)-1-[4-(1-Hydroxy-hexyl)-phenyl]-5-oxo-pyrrolidin-2-ylmethoxy}-benzoic acid]: the EC50 at hEP2/Gqs5 was found to be 7280 nM. For the same compound, the Ki at EP4 receptors amounted to 8750 nM; on EP2 [2] it was 22700 nM.

As for `CCCCC[C@@H](O)c1ccc(N2C(=O)CC[C@@H]2/C=C/Cc2ccc(C(=O)O)s2)cc1` (racemic) [Example 16, 5-((E and Z)-3-{(R)-1-[4-(1-Hydroxy-hexyl)-phenyl]-5-oxo-pyrrolidin-2-yl}-allyl)-thiophene-2-carboxylic acid], the EC50 came to 226 nM on hEP2/Gqs5 and 15 nM on EP2 [1]. Further, the Ki is more than 10000 nM at EP4 receptors and 1380 nM at EP2 [2].

The record behind these values is patent US7592364B2, “Substituted gamma lactams as therapeutic agents” (Allergan, Inc., priority 2006, dated 2009).
